Data on one compound can be found in patent US20100311643A1, “USE OF GLP-1 AS A THERAPEUTIC AGENT” (priority 2007, published 2010).

The subject of the assay is drug-resistant Mycobacterium tuberculosis. Particulars: drug-resistant Mycobacterium tuberculosis growth; peptide 10 micrograms per ml; seven days.

Structures are written as SMILES.

For orientation: % inhibition means the percentage by which the read-out fell short of the control. Low values mean a response near the control, high ones a response far below the control. For `CC[C@H](C)[C@H](NC(=O)[C@H](Cc1ccccc1)NC(=O)[C@H](CCC(=O)O)NC(=O)[C@H](CCCCN)NC(=O)[C@H](C)NC(=O)[C@H](C)NC(=O)[C@H](CCC(N)=O)NC(=O)CNC(=O)[C@H](CCC(=O)O)NC(=O)[C@H](CC(C)C)NC(=O)[C@H](Cc1ccc(O)cc1)NC(=O)[C@H](CO)NC(=O)[C@H](CO)NC(=O)[C@@H](NC(=O)[C@H](CC(=O)O)NC(=O)[C@H](CO)NC(=O)[C@@H](NC(=O)[C@H](Cc1ccccc1)NC(=O)[C@@H](NC(=O)CNC(=O)[C@H](CCC(=O)O)NC(=O)[C@H](C)NC(=O)[C@H](Cc1c[nH]cn1)NC(=O)[C@H](CCCNC(=N)N)NC(=O)[C@H](CCC(=O)O)NC(=O)[C@H](Cc1ccccc1)NC(=O)[C@H](CCC(=O)O)NC(=O)[C@H](CC(=O)O)NC(=O)[C@@H](N)Cc1c[nH]cn1)[C@@H](C)O)[C@@H](C)O)C(C)C)C(=O)N[C@@H](C)C(=O)N[C@@H](Cc1c[nH]c2ccccc12)C(=O)N[C@@H](CC(C)C)C(=O)N[C@H](C(=O)N[C@@H](CCCCN)C(=O)NCC(=O)N[C@@H](CCCNC(=N)N)C(=O)NCC(=O)O)C(C)C` [GLP-1], the “% inhibition” value was 0.0%.
